Read-outs that look alike come from different tables or passages of the source.
Key:
SARS-CoV-2 Mpro = SARS-CoV-2 Mpro (Severe acute respiratory syndrome coronavirus 2, UniProt P0DTD1); test: SARS-CoV-2 Mpro enzymatic inhibition assay (fluorescence); format: biochemical
Procedure, shortened: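 Recombinant Mpro expressed in E. coli was preincubated 30 min at room temperature with 10-point, 3-fold serially diluted compound in duplicate. Fluorogenic substrate was then added and incubated 60 min at 30° C, and fluorescence read at Ex/Em 340/490 nm. IC50 came from a four-parameter fit of % inhibition.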

HCoV-229E Mpro = HCoV-229E Mpro (Human coronavirus 229E, UniProt P0C6X1); test: HCoV-229E Mpro enzymatic inhibition assay (fluorescence); format: biochemical
Protocol: (§1) The hCoV Mpro are cloned, expressed in E. coli and purified by WuXi AppTec Co., Ltd. The substrate are synthesized by Genscript Biotech.
(§2) Compounds are 3 fold serially diluted for 10 doses and added to an assay plate (384w format) using ECHO, in duplicate wells. The test concentration of test compounds is defined by sponsor. […] For no inhibition control (ZPE, zero percent effect), DMSO is added.
(§3) 25 μL of Mpro proteins are added to the assay plates containing compounds, respectively, using Multidrop. The compounds and Mpro proteins are pre-incubated at room temperature for 30 min. Then 5 µL of Mpro substrates are added to the related assay plates, respectively. Each activity testing point has a relevant background control to normalize the fluorescence interference of compound.
(§4) After 60 min incubation at 30° C., the fluorescence signal (RFU) is detected using a microplate reader M2e (SpectraMax) at Ex/Em=340 nm/490 nm.
(§5) The inhibition activity is calculated using the formula below, IC50 values will be calculated using the Inhibition % data.
(§6) Inhibition %=[(CPD−BGCPD)−(ZPE−BGZPE)/(HPE−BGHPE)−(ZPE−BGZPE)]×[…] • CPD: Signal of test compounds wells, containing compound+enzyme+substrate. • ZPE: Average of signals of zero percent effective control wells, containing enzyme+substrate, no compound. • HPE: Average of signals of hundred percent effect control wells, containing GC376+enzyme+substrate. • BG: Compound background control wells, containing compound+substrate, no enzyme
(§7) IC50 values of compounds are calculated with the GraphPad Prism software using the nonlinear regression model of log(inhibitor) vs. response—Variable slope (four parameters).

HCoV-HKU1 Mpro = HCoV-HKU1 Mpro (Human coronavirus HKU1, UniProt P0C6X2); test: HCoV-HKU1 Mpro enzymatic inhibition assay (fluorescence); format: biochemical
Protocol: as §1, §2, §3, §4, §5, §6, §7

MERS Mpro = MERS Mpro (Middle East respiratory syndrome-related coronavirus, UniProt K9N7C7); test: biochemical; set-up: species or system MERS-CoV
HCoV-NL63 Mpro = HCoV-NL63 Mpro (Human coronavirus NL63, UniProt P0C6X5); test: HCoV-NL63 Mpro enzymatic inhibition assay (fluorescence); format: biochemical
Protocol: as §1, §2, §3, §4, §5, §6, §7

HCoV-OC43 Mpro = HCoV-OC43 Mpro (Human coronavirus OC43, UniProt P0C6X6); test: HCoV-OC43 Mpro enzymatic inhibition assay (fluorescence); format: biochemical
Protocol: as §1, §2, §3, §4, §5, §6, §7

SARS-CoV-1 Mpro = SARS-CoV-1 Mpro (Severe acute respiratory syndrome coronavirus, UniProt P0C6X7); test: biochemical
[1] = mean, 25 nM protein, 25 μM substrate, 30 min pre-incubation, 60 min at 30° C., read-out: Mpro_SARS-CoV-2 mean IC50

Chain of HCoV-NL63 Mpro (P0C6X5 2940-3242 limits assumed): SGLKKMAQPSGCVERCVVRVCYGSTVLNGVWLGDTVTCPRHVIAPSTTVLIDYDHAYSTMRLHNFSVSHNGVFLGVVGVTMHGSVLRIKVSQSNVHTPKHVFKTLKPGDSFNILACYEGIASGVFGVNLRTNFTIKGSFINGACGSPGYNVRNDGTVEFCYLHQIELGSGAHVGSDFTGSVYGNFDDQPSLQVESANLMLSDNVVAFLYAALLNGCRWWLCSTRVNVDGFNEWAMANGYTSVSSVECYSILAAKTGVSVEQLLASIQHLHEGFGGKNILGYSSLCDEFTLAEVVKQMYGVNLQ
Chain of HCoV-OC43 Mpro (P0C6X6 3247-3549 limits assumed): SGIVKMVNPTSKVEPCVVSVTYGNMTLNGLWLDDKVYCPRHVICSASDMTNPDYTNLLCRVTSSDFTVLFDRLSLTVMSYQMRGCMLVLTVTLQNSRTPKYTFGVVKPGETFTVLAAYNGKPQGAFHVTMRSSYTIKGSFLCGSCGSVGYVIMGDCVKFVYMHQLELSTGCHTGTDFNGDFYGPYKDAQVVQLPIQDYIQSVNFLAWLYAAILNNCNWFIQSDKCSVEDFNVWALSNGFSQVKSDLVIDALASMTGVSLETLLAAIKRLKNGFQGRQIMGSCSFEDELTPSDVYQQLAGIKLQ
Chain of HCoV-229E Mpro (P0C6X1 2966-3267 limits assumed): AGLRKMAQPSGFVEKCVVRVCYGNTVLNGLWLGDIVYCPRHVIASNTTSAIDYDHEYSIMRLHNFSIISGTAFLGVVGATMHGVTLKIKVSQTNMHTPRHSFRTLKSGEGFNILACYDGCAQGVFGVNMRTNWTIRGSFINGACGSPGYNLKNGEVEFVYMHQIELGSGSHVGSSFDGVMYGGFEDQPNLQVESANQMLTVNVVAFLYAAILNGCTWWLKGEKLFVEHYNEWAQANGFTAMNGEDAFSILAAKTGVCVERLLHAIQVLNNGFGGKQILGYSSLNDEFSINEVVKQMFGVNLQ
Chain of HCoV-HKU1 Mpro (P0C6X2 3335-3637 limits assumed): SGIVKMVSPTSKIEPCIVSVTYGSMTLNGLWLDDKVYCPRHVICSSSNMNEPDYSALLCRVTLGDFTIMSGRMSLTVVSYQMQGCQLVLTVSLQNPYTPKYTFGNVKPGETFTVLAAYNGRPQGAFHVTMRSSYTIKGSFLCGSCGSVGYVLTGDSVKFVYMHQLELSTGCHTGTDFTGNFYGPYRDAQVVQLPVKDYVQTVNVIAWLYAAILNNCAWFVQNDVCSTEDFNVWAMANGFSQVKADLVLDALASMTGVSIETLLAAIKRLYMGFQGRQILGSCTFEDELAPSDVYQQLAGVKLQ
Chain of MERS Mpro (K9N7C7 3248-3553 limits assumed): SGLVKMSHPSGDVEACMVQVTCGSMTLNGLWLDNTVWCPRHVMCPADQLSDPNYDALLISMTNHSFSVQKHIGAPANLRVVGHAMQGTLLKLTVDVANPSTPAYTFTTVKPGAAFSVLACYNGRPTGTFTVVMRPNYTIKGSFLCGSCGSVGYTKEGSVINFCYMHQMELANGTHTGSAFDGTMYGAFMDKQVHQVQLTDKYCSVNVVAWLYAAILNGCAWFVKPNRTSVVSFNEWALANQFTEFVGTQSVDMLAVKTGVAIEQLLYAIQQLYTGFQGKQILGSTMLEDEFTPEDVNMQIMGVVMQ

Structure (SMILES)	IC50 (SARS-CoV-2 Mpro) [µM]	IC50 (HCoV-229E Mpro) [µM]	IC50 (HCoV-HKU1 Mpro) [µM]	IC50 (MERS Mpro) [µM]	IC50 (HCoV-NL63 Mpro) [µM]	IC50 (HCoV-OC43 Mpro) [µM]	IC50 (SARS-CoV-1 Mpro) [µM]	IC50 (SARS-CoV-2 Mpro; [1]) [µM]
CC1(C)C[C@@H](C(=O)N[C@H](C=O)C[C@@H]2CCNC2=O)N(C(=O)c2cc3cccc(C#N)c3[nH]2)C1 [Compound 58, (S)-1-(7-Cyano-1H-indole-2-carbonyl)-4,4-dimethyl-N—((S)-1-oxo-3-((S)-2-oxopyrrolidin-3-yl)propan-2-yl)pyrrolidine-2-carboxamide]	0.0258	0.0285	0.019	0.338	0.0407	0.0563	0.0628	–
O=C[C@H](C[C@@H]1CCNC1=O)NC(=O)[C@@H]1CC2(CC2)CN1C(=O)c1cc2c(F)cccc2[nH]1 [Compound 3, (S)-5-(4-fluoro-1H-indole-2-carbonyl)-N—((S)-1-oxo-3-((S)-2-oxopyrrolidin-3-yl)propan-2-yl)-5-azaspiro[2.4]heptane-6-carboxamide]	0.0101	0.0274	0.00995	0.11	0.0178	0.025	0.0193	–
COc1ccc(F)c2[nH]c(C(=O)N3C[C@H]4[C@@H]([C@H]3C(=O)N[C@H](C=O)C[C@@H]3CCNC3=O)C4(C)C)cc12 [Compound 36, (1R,2S,5S)-3-(7-Fluoro-4-methoxy-1H-indole-2-carbonyl)-6,6-dimethyl-N—((S)-1-oxo-3-((S)-2-oxopyrrolidin-3-yl)propan-2-yl)-3-azabicyclo[3.1.0]hexane-2-carboxamide]	0.0206	0.0332	0.0357	0.245	0.0517	0.0427	0.0317	–
CC1(C)[C@@H]2[C@@H](C(=O)N[C@H](C=O)C[C@@H]3CCNC3=O)N(C(=O)c3cc4cccc(Cl)c4[nH]3)C[C@@H]21 [Compound 5, (1R,2S,5S)-3-(7-chloro-1H-indole-2-carbonyl)-6,6-dimethyl-N—((S)-1-oxo-3-((S)-2-oxopyrrolidin-3-yl)propan-2-yl)-3-azabicyclo[3.1.0]hexane-2-carboxamide]	0.0105	0.0339	0.022	0.147	0.0535	0.0421	0.0225	–
CC1(C)[C@@H]2[C@@H](C(=O)N[C@H](C#N)C[C@@H]3CCNC3=O)N(C(=O)c3cc4c(F)ccc(Cl)c4[nH]3)C[C@@H]21 [Compound 128, (1R,2S,5S)-3-(7-Chloro-4-fluoro-1H-indole-2-carbonyl)-N—((S)-1-cyano-2-((S)-2-oxopyrrolidin-3-yl)ethyl)-6,6-dimethyl-3-azabicyclo[3.1.0]hexane-2-carboxamide]	0.318	1.23	1.9	5.58	3.98	1.99	0.788	–
CO[C@@H]1C[C@@H](C(=O)N[C@H](C=O)C[C@@H]2CCNC2=O)N(C(=O)c2cc3ccccc3[nH]2)C1 [Compound 121, (2S,4R)-1-(1H-Indole-2-carbonyl)-4-methoxy-N—((S)-1-oxo-3-((S)-2-oxopyrrolidin-3-yl)propan-2-yl)pyrrolidine-2-carboxamide]	0.159	0.152	0.546	2.63	0.198	0.825	0.294	–
CC1(C)[C@@H]2[C@@H](C(=O)N[C@H](C=O)C[C@@H]3CCNC3=O)N(C(=O)C3(c4ccccc4)CCCC3)C[C@@H]21 [Compound 17, (1R,2S,5S)-6,6-dimethyl-N—((S)-1-oxo-3-((S)-2-oxopyrrolidin-3-yl)propan-2-yl)-3-(1-phenylcyclopentanecarbonyl)-3-azabicyclo[3.1.0]hexane-2-carboxamide]	0.0152	0.0484	0.0237	0.276	0.18	0.0598	0.0278	–
N#Cc1ccc2cc(C(=O)N3CC4(CC4)C[C@H]3C(=O)N[C@H](C=O)C[C@@H]3CCNC3=O)[nH]c2c1 [Compound 82, (S)-5-(6-Cyano-1H-indole-2-carbonyl)-N—((S)-1-oxo-3-((S)-2-oxopyrrolidin-3-yl)propan-2-yl)-5-azaspiro[2.4]heptane-6-carboxamide]	0.0355	0.0261	0.0106	0.176	0.0301	0.0337	0.0351	–
CC(C)(C)CC(=O)N1C[C@H]2[C@@H]([C@H]1C(=O)N[C@H](C=O)C[C@@H]1CCNC1=O)C2(C)C [Compound 95, (1R,2S,5S)-3-(3,3-Dimethylbutanoyl)-6,6-dimethyl-N—((S)-1-oxo-3-((S)-2-oxopyrrolidin-3-yl)propan-2-yl)-3-azabicyclo[3.1.0]hexane-2-carboxamide]	–	0.0675	0.0644	0.413	0.189	0.124	0.1	0.0455
CC1(C)[C@@H]2[C@@H](C(=O)N[C@H](C#N)C[C@@H]3CCNC3=O)N(C(=O)C3(c4cccc(Cl)c4)CC3)C[C@@H]21 [Compound 123, (1R,2S,5S)-3-(1-(3-Chlorophenyl)cyclopropanecarbonyl)-N—((S)-1-cyano-2-((S)-2-oxopyrrolidin-3-yl)ethyl)-6,6-dimethyl-3-azabicyclo[3.1.0]hexane-2-carboxamide]	–	0.459	0.185	1.18	2.11	0.419	0.224	0.178
CC1(C)[C@@H]2[C@@H](C(=O)N[C@H](C=O)C[C@@H]3CCNC3=O)N(C(=O)C3(O)CCCCC3)C[C@@H]21 [Compound 94, (1R,2S,5S)-3-(1-Hydroxycyclohexanecarbonyl)-6,6-dimethyl-N—((S)-1-oxo-3-((S)-2-oxopyrrolidin-3-yl)propan-2-yl)-3-azabicyclo[3.1.0]hexane-2-carboxamide]	–	0.0699	0.18	0.568	0.344	0.231	0.115	0.0451
CC1(C)[C@@H]2[C@@H](C(=O)N[C@H](C=O)C[C@@H]3CCNC3=O)N(C(=O)CC3CCCC(F)(F)C3)C[C@@H]21 (stereo partly drawn) [Compound 22, (1R,2S,5S)-3-(2-(3,3-difluorocyclohexyl)acetyl)-6,6-dimethyl-N—((S)-1-oxo-3-((S)-2-oxopyrrolidin-3-yl)propan-2-yl)-3-azabicyclo[3.1.0]hexane-2-carboxamide]	0.0158	0.0244	0.0105	0.123	0.0371	0.0284	0.0277	–
Cc1ccc2cc(C(=O)N3C[C@H]4[C@@H]([C@H]3C(=O)N[C@H](C=O)C[C@@H]3CCNC3=O)C4(C)C)[nH]c2c1C [Compound 18, (1R,2S,5S)-3-(6,7-dimethyl-1H-indole-2-carbonyl)-6,6-dimethyl-N—((S)-1-oxo-3-((S)-2-oxopyrrolidin-3-yl)propan-2-yl)-3-azabicyclo[3.1.0]hexane-2-carboxamide]	0.0153	0.0388	0.0331	0.301	0.0761	0.0659	0.0336	–
CC1(C)[C@@H]2[C@@H](C(=O)N[C@H](C=O)C[C@@H]3CCNC3=O)N(C(=O)c3cc4ccc(C#N)cc4[nH]3)C[C@@H]21 [Compound 74, (1R,2S,5S)-3-(6-Cyano-1H-indole-2-carbonyl)-6,6-dimethyl-N—((S)-1-oxo-3-((S)-2-oxopyrrolidin-3-yl)propan-2-yl)-3-azabicyclo[3.1.0]hexane-2-carboxamide]	0.032	0.0553	0.0409	0.479	0.0868	0.0864	0.0614	–
CC1(C)C[C@@H](C(=O)N[C@H](C=O)C[C@@H]2CCNC2=O)N(C(=O)c2cc3c(F)cccc3[nH]2)C1 [Compound 51, (S)-1-(4-Fluoro-1H-indole-2-carbonyl)-4,4-dimethyl-N—((S)-1-oxo-3-((S)-2-oxopyrrolidin-3-yl)propan-2-yl)pyrrolidine-2-carboxamide]	0.0244	0.0273	0.013	0.192	0.0222	0.0219	0.038	–
